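1) Cells in 96-well plates. 2) Compound, 48 h, 5 concentrations. 3) Linear interpolation between surrounding doses. 4) Unreached endpoint = highest concentration. GI50 = concentration required for 50% inhibition of growth.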 Calls of active or inactive are those of the source. Cut-off read from the data, not from the text of the source: active = GI50 up to about 1.1 µM and inactive = higher.
Tests used:
Assay in all cases: inhibition of tumour cell growth, NCI panel, 48 h
U-251 = test system: U-251
UACC-257 = test system: UACC-257
SF-539 = test system: SF-539
NCI-H23 = test system: NCI-H23
UO-31 = test system: UO-31
Hs-578T = test system: Hs-578T
A549 = test system: A549
HOP-62 = test system: HOP-62
CAKI-1 = test system: CAKI-1
TK-10 = test system: TK-10
NCI-H226 = test system: NCI-H226
RXF 393 = test system: RXF 393
EKVX = test system: EKVX
PC-3 = test system: PC-3
ACHN = test system: ACHN
CCRF-CEM = test system: CCRF-CEM
A498 = test system: A498
COLO 205 = test system: COLO 205
NCI-H460 = test system: NCI-H460
HCC 2998 = test system: HCC 2998
OVCAR-3 = test system: OVCAR-3
SF-268 = test system: SF-268
KM12 = test system: KM12
HCT-116 = test system: HCT-116
IGROV-1 = test system: IGROV-1
HCT-15 = test system: HCT-15
NCI-H522 = test system: NCI-H522
SK-MEL-2 = test system: SK-MEL-2
HOP-92 = test system: HOP-92
SK-OV-3 = test system: SK-OV-3
SNB-19 = test system: SNB-19
RPMI-8226 = test system: RPMI-8226
SNB-75 = test system: SNB-75
Malme-3M = test system: Malme-3M
HT-29 = test system: HT-29
MDA-MB-231 = test system: MDA-MB-231
MOLT-4 = test system: MOLT-4
MDA-N = test system: MDA-N
SK-MEL-5 = test system: SK-MEL-5
LOX IMVI = test system: LOX IMVI
SW-620 = test system: SW-620
SF-295 = test system: SF-295
DU-145 = test system: DU-145
OVCAR-8 = test system: OVCAR-8
786-0 = test system: 786-0
K562 = test system: K562
NCI/ADR-RES = test system: NCI/ADR-RES
MCF7 = test system: MCF7
M14 = test system: M14
SK-MEL-28 = test system: SK-MEL-28
OVCAR-5 = test system: OVCAR-5
T47D = test system: T47D
OVCAR-4 = test system: OVCAR-4
SN12C = test system: SN12C
MDA-MB-435 = test system: MDA-MB-435
UACC-62 = test system: UACC-62
HL-60 = test system: HL-60
SR = test system: SR

CCOC(=O)C1=CC(C)(C(=O)OCC)Nc2c(nc(OC)[nH]c2=O)N1 (stereo not given)
GI50 (U-251): > 10 µM (inactive) | GI50 (UACC-257): > 10 µM (inactive) | GI50 (SF-539): > 10 µM (inactive) | GI50 (NCI-H23): > 10 µM (inactive) | GI50 (UO-31): > 10 µM (inactive) | GI50 (Hs-578T): > 10 µM (inactive) | GI50 (A549): > 10 µM (inactive) | GI50 (HOP-62): > 10 µM (inactive) | GI50 (CAKI-1): > 10 µM (inactive) | GI50 (TK-10): > 10 µM (inactive) | GI50 (NCI-H226): > 10 µM (inactive) | GI50 (RXF 393): > 10 µM (inactive) | GI50 (EKVX): > 10 µM (inactive) | GI50 (PC-3): > 10 µM (inactive) | GI50 (ACHN): > 10 µM (inactive) | GI50 (CCRF-CEM): > 10 µM (inactive) | GI50 (A498): > 10 µM (inactive) | GI50 (COLO 205): > 10 µM (inactive) | GI50 (NCI-H460): > 10 µM (inactive) | GI50 (HCC 2998): > 10 µM (inactive) | GI50 (OVCAR-3): > 10 µM (inactive) | GI50 (SF-268): > 10 µM (inactive) | GI50 (KM12): > 10 µM (inactive) | GI50 (HCT-116): > 10 µM (inactive) | GI50 (IGROV-1): > 10 µM (inactive) | GI50 (HCT-15): > 10 µM | GI50 (NCI-H522): > 10 µM (inactive) | GI50 (SK-MEL-2): > 10 µM (inactive) | GI50 (HOP-92): > 10 µM (inactive) | GI50 (SK-OV-3): > 10 µM (inactive) | GI50 (SNB-19): > 10 µM (inactive) | GI50 (RPMI-8226): > 10 µM (inactive) | GI50 (SNB-75): > 10 µM (inactive) | GI50 (Malme-3M): > 10 µM (inactive) | GI50 (HT-29): > 10 µM (inactive) | GI50 (MDA-MB-231): > 10 µM (inactive) | GI50 (MOLT-4): > 10 µM (inactive) | GI50 (MDA-N): > 10 µM (inactive) | GI50 (SK-MEL-5): > 10 µM (inactive) | GI50 (LOX IMVI): > 10 µM (inactive) | GI50 (SW-620): > 10 µM (inactive) | GI50 (SF-295): > 10 µM (inactive) | GI50 (DU-145): > 10 µM (inactive) | GI50 (OVCAR-8): > 10 µM (inactive) | GI50 (786-0): > 10 µM (inactive) | GI50 (K562): > 10 µM (inactive) | GI50 (NCI/ADR-RES): > 10 µM (inactive) | GI50 (MCF7): > 10 µM (inactive) | GI50 (M14): > 10 µM (inactive) | GI50 (SK-MEL-28): > 10 µM (inactive) | GI50 (OVCAR-5): > 10 µM (inactive) | GI50 (T47D): > 10 µM (inactive) | GI50 (OVCAR-4): > 10 µM (inactive) | GI50 (SN12C): > 10 µM (inactive)

CN(C)c1cccc2c1C(=O)C=CC21c2ccc(N(C)C)c3c(N(C)C)ccc(c23)C(c2ccccc2)C1c1ccccc1 (stereo not given)
GI50 (U-251): 10.5 µM (inactive) | GI50 (UACC-257): 12.6 µM (inactive) | GI50 (SF-539): 12.1 µM (inactive) | GI50 (NCI-H23): 24.7 µM (inactive) | GI50 (UO-31): 4.8 µM (inactive) | GI50 (Hs-578T): 10 µM (inactive) | GI50 (A549): 27.5 µM (inactive) | GI50 (HOP-62): 17.6 µM (inactive) | GI50 (CAKI-1): 1.64 µM (inactive) | GI50 (TK-10): 12 µM (inactive) | GI50 (NCI-H226): 12.7 µM (inactive) | GI50 (RXF 393): 13 µM (inactive) | GI50 (EKVX): 22.2 µM (inactive) | GI50 (PC-3): 9.71 µM (inactive) | GI50 (ACHN): 13.1 µM (inactive) | GI50 (CCRF-CEM): 4.86 µM (inactive) | GI50 (A498): 6.68 µM (inactive) | GI50 (COLO 205): 11.3 µM (inactive) | GI50 (NCI-H460): 24 µM (inactive) | GI50 (HCC 2998): 17.6 µM (inactive) | GI50 (OVCAR-3): 12.6 µM (inactive) | GI50 (SF-268): 12.9 µM (inactive) | GI50 (KM12): 14.3 µM (inactive) | GI50 (HCT-116): 21.3 µM (inactive) | GI50 (IGROV-1): 12 µM (inactive) | GI50 (HCT-15): 27.3 µM | GI50 (NCI-H522): 21.3 µM (inactive) | GI50 (MDA-MB-435): 15 µM (inactive) | GI50 (HOP-92): 8.73 µM (inactive) | GI50 (SK-OV-3): 11.4 µM (inactive) | GI50 (SNB-19): 16.3 µM (inactive) | GI50 (RPMI-8226): 15.9 µM (inactive) | GI50 (SNB-75): 8.26 µM (inactive) | GI50 (Malme-3M): 18 µM (inactive) | GI50 (HT-29): 14.9 µM (inactive) | GI50 (MDA-MB-231): 8.75 µM (inactive) | GI50 (MOLT-4): 0.592 µM (active) | GI50 (MDA-N): 16.4 µM (inactive) | GI50 (UACC-62): 20.1 µM (inactive) | GI50 (SK-MEL-5): 14.2 µM (inactive) | GI50 (LOX IMVI): 15.2 µM (inactive) | GI50 (SW-620): 19.8 µM (inactive) | GI50 (SF-295): 14.5 µM (inactive) | GI50 (DU-145): 42.5 µM (inactive) | GI50 (OVCAR-8): 13.5 µM (inactive) | GI50 (786-0): 9.44 µM (inactive) | GI50 (K562): 18.3 µM (inactive) | GI50 (HL-60): 3.34 µM (inactive) | GI50 (NCI/ADR-RES): 22.6 µM (inactive) | GI50 (MCF7): 17.9 µM (inactive) | GI50 (M14): 16.7 µM (inactive) | GI50 (SK-MEL-28): 17.5 µM (inactive) | GI50 (OVCAR-5): 28.1 µM (inactive) | GI50 (SR): 7.82 µM (inactive) | GI50 (OVCAR-4): 3.85 µM (inactive) | GI50 (SN12C): 10.8 µM (inactive)
